Data from patent US8741836B2, “Polypeptides” (Novo Nordisk A/S, priority 2011, dated 2014).
Starred links: 1 amine or outer side, 2 acyl side, 3 side chain; linkers in the order of their positions; H or OH if unused. Positions of bridges follow the written chain, without caps; N, C: chain ends. Residues, ends and D or L forms follow the SMILES beside them. *: point of attachment. C20 diacid = O=C(O)CCCCCCCCCCCCCCCCCCC(=O)*; γGlu = O=C(O)[C@H](CCC(=O)[*:2])N[*:1]

System: ad libitum fed rat
Experiment: Assay (I) efficacy testing on appetite (food intake) using an ad libitum fed rat model
Format: in vivo, Sprague Dawley (SD) rats
Conditions: 3 nmol/kg
From the text: In the following examples reference is made to the following Assays: • Assay (I)—Experimental protocol for efficacy testing on appetite using an ad libitum fed rat model • ASSAY (II)a—Functional assay—Human calcitonin and amylin receptor assay • ASSAY (II)b—Functional assay—Rat calcitonin and rat amylin receptor assays • ASSAY (III)—ThT fibrillation assays for the assessment of physical stability of protein formulations • ASSAY (IV)—Determination of solubility • ASSAY (V)—Determination of binding to the human amylin receptor • ASSAY (VI)—Determination of the binding to the rat amylin receptor • ASSAY (VII)—Determination of binding to the human calcitonin receptor • ASSAY (VIII)—Determination of binding to the rat calcitonin receptor • ASSAY (IX)—pK—Determination of T½ in mini-pig • ASSAY (X)—pK—Determination of T½ in rat Assay (I)—Experimental protocol for Efficacy Testing on Appetite Using an Ad Libitum Fed Rat Model
Sprague Dawley (SD) rats from Taconic Europe, Denmark are used for the experiments. The rats have a body weight 200-250 g at the start of experiment. The rats arrive at least 10-14 days before start of experiment to allow acclimatization to experimental settings. During this period the animals are handled at least 2 times. After arrival rats are housed individually for one week in a reversed light/dark phase (meaning that lights are off during daytime and on during nighttime) […]. Since rats are normally active and eat their major part of their daily food intake during the dark period, rats are dosed in the morning right before lights are turned off. This set-up results in the lowest data variation and highest test sensitivity. The experiment is conducted in the rats' home cages and rats have free access to food and water throughout the acclimatization period and the experiment period. Each dose of derivative is tested in a group of 5-8 rats. A vehicle group of 6-8 rats is included in each set of testing. Rats are dosed once according to body weight with a 0.01-3 mg/kg solution administered intraperitoneally (ip), orally (po) or subcutaneously (sc). The time of dosing is recorded for each group. After dosing, the rats are returned to their home cages, where they then have access to food and water. The food consumption is recorded individually continuously by on-line registration or manually every hour for 7 hours, and then after 24 h and sometimes 48 h. At the end of the experimental session, the animals are euthanised.
The individual data are recorded in Microsoft excel sheets. Outliers are excluded after applying the Grubbs statistical evaluation test for outliers, and the result is presented graphically using the GraphPad Prism program.

Compound	Food intake reduction 0-24 h 3 nmol/kg (%)	Food intake reduction 24-48 h 3 nmol/kg (%)
CC[C@H](C)[C@H](NC(=O)[C@@H]1CCCN1C(=O)CNC(=O)[C@H](Cc1ccccc1)NC(=O)[C@H](CC(N)=O)NC(=O)[C@H](CC(N)=O)NC(=O)[C@H](CO)NC(=O)[C@H](CO)NC(=O)[C@H](Cc1c[nH]cn1)NC(=O)[C@H](Cc1c[nH]cn1)NC(=O)[C@H](CC(C)C)NC(=O)[C@H](Cc1ccccc1)NC(=O)[C@H](CCC(=O)O)NC(=O)[C@H](C)NC(=O)[C@H](CC(C)C)NC(=O)[C@H](CCCNC(=N)N)NC(=O)[C@H](CCC(N)=O)NC(=O)[C@@H](NC(=O)[C@H](C)NC(=O)[C@@H]1CSSC[C@H](NC(=O)[C@H](CCC(=O)O)NC(=O)CC[C@H](NC(=O)CCCCCCCCCCCCCCCCCCC(=O)O)C(=O)O)C(=O)N[C@@H](CC(N)=O)C(=O)N[C@@H]([C@@H](C)O)C(=O)N[C@@H](C)C(=O)N[C@@H]([C@@H](C)O)C(=O)N1)[C@@H](C)O)C(=O)N[C@@H](CC(C)C)C(=O)N1CCC[C@H]1C(=O)N1CCC[C@H]1C(=O)N[C@H](C(=O)N[C@@H](CC(N)=O)C(=O)N[C@H](C(=O)NCC(=O)N[C@@H](CO)C(=O)N[C@@H](CC(N)=O)C(=O)N[C@H](C(=O)N[C@@H](Cc1ccc(O)cc1)C(N)=O)[C@@H](C)O)C(C)C)[C@@H](C)O [Example 29, N-alpha-[(S)-4-Carboxy-4-(19-carboxynonadecanoylamino)butyryl]-[Glu1,Glu14,His17]-pramlintide] ({C20 diacid-γGlu}-ECNTATCATQRLAEFLHHSSNNFGPILPPTNVGSNTY-NH2; disulfide 2-7 (inferred); C-terminus assumed)	15	5
CC[C@H](C)[C@H](NC(=O)[C@@H]1CCCN1C(=O)CNC(=O)[C@H](Cc1ccccc1)NC(=O)[C@H](CC(N)=O)NC(=O)[C@H](CC(N)=O)NC(=O)[C@H](CO)NC(=O)[C@H](CO)NC(=O)[C@H](Cc1c[nH]cn1)NC(=O)[C@H](Cc1c[nH]cn1)NC(=O)[C@H](CC(C)C)NC(=O)[C@H](Cc1ccccc1)NC(=O)[C@H](CCC(=O)O)NC(=O)[C@H](C)NC(=O)[C@H](CC(C)C)NC(=O)[C@H](CCCNC(=N)N)NC(=O)[C@H](CCC(N)=O)NC(=O)[C@@H](NC(=O)[C@H](C)NC(=O)[C@@H]1CSSC[C@H](NC(=O)[C@H](CCCCN)NC(=O)CC[C@H](NC(=O)CCCCCCCCCCCCCCCCCCC(=O)O)C(=O)O)C(=O)N[C@@H](CC(N)=O)C(=O)N[C@@H]([C@@H](C)O)C(=O)N[C@@H](C)C(=O)N[C@@H]([C@@H](C)O)C(=O)N1)[C@@H](C)O)C(=O)N[C@@H](CC(C)C)C(=O)N1CCC[C@H]1C(=O)N1CCC[C@H]1C(=O)N[C@H](C(=O)N[C@@H](CC(N)=O)C(=O)N[C@H](C(=O)NCC(=O)N[C@@H](CO)C(=O)N[C@@H](CC(N)=O)C(=O)N[C@H](C(=O)N[C@@H](Cc1ccc(O)cc1)C(N)=O)[C@@H](C)O)C(C)C)[C@@H](C)O [Example 27, N-alpha-[(S)-4-Carboxy-4-(19-carboxynonadecanoylamino)butyryl]-[Glu14,His17]-pramlintide] ({C20 diacid-γGlu}-KCNTATCATQRLAEFLHHSSNNFGPILPPTNVGSNTY-NH2; disulfide 2-7 (inferred))	56	53
